In assay [1] the test system is human diploid fibroblasts (HCA cells). Nature of the assay: Inhibition of senescence, β-galactosidase staining of fibroblasts. As to conditions: for SENESCENT CELLS (%) HCA25: HCA cells passage 25, β-galactosidase staining; for SENESCENT CELLS (%) HCA45: HCA cells passage 45, β-galactosidase staining; for SENESCENT CELLS (%) HCA80: HCA cells passage 80, β-galactosidase staining. The format is cell-based. On the procedure: In this example, human diploid fibroblasts (HCA cells of various passage levels: passage 25—designated HCA25; passage 45—designated HCA45; passage 80—designated HCA80) were stained for β-galactosidase activity. The medium present on cultured cells was removed, the cells were washed twice in […], and fixed in 2-3 ml of fixing solution comprised of a 2% formaldehyde and 0.2% glutaraldehyde in PBS. The cells were incubated at room temperature for 5 minutes, then washed twice with PBS. The cells were then incubated at 37° C. […] In this experiment, senescent cells, but not other cells were stained blue due to the action of β-galactosidase on the substrate (FIG. 9).

Assay [2] deals with MMK1 protein kinase (Vicia faba, UniProt A0AAV1B7B8). Nature of the assay: MMK1 protein kinase activity. Format: biochemical. How it is done: Protein extraction and purification of pant CDK by binding to p13^suc1-beads or immunopurification with an antibody specific to the cdc2a-MS protein was carried out as described previously (Bögre et al. 1997, Plant Physiol. 113, 1997, 841-852). The MMK1 protein kinase was purified with a specific antibody from Vicia faba extracts as described by Bögre et al. 1997a, Plant Cell 9, 75-83). Protein kinase activity was measures as described above in Example 20. The quantification of radioactivity incorporated into histone H1 or myelin basic protein was undertaken using phosphoimager (FIG. 2).
MMK1 protein kinase, sequence (A0AAV1B7B8 1-394): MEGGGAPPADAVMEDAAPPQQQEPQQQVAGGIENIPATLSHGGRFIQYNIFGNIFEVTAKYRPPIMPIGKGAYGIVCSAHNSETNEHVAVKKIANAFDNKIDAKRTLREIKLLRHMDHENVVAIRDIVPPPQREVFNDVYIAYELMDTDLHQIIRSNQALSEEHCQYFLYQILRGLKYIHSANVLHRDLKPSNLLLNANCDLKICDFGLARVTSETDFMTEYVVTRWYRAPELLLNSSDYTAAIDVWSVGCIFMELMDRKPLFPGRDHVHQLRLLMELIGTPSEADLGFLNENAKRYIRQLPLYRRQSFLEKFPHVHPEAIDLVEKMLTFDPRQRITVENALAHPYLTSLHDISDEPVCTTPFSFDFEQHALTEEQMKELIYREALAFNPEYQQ

The test system of assay [3] is CEM (human lymphoblastoid leukemia). Kind of assay: In vitro cytotoxic activity, Calcein AM. Format: cell-based. Conditions: Homo sapiens, 72 h, three days. Summed up:
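CEM cells were seeded at 10^4/well in DMEM + 10% FBS and exposed to six concentrations from 200 to 0.2 μM, in triplicate, for 3 days at 37 °C and 5% CO2. Viable cells were then measured by Calcein AM fluorescence after 1 h loading.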

Assay [4] concerns normal human lymphocytes. Kind of assay: Immunosuppressive activity, 3H-thymidine incorporation in concanavalin A activated lymphocytes. Format: cell-based. Conditions: Lymphocyte, 72 hours, [3H]-TdR, read-out: Human lymphocytes ED50. On the procedure: Human heparinized peripheral blood was obtained from healthy volunteers by cubital vein punction. The blood was diluted in PBS (1:3) and mononuclear cells were separated by centrifugation in Ficoll-Hypaque density gradient (Pharmacia, 1.077 g/ml) at 2200 rpm for 30 minutes. Following centrifugation, lymphocytes were washed in PBS and resuspended in cell culture medium (RMPI 1640, 2 mM glutamine, 100 U/ml penicillin, 100 μg/ml streptomycin, 10% fetal calf serum and sodium bicarbonate).
The cells were diluted at target density of 1.100.000 cells/ml were added by pipette (180 μl) into 96/well microtiter plates. Four-fold dilutions of the intended test concentration were added at time zero in 20 μl aliquots to the microtiter plate wells. Usually, test compound was evaluated at six 4-fold dilutions. In routine testing, the highest well concentration was 266.7 μM. All drug concentrations were examined in duplicates. All wells with exception of unstimulated controls were activated with 50 μl of concanavalin A (25 μg/ml). Incubations of cells with test compounds lasted for 72 hours at 37° C., in 5% CO2 atmosphere and 100% humidity. At the end of incubation period, the cells were assayed by using the [^3H]-TdR:
Cell cultures were incubated with 0.5 μCi (20 μl of stock solution […]) per well for 6 hours at 37° C. and 5% CO2. The automated cell harvester was used to lyse cells in water and adsorb the DNA onto glass-fiber filters in the format of microtiter plate. The DNA incorporated [^3H]-TdR was retained on the filter while unincorporated material passes through. The filters were dried at room temperature overnight, sealed into a sample bag with 10-12 ml of scintillant. The amount of [^3H]-TdR present in each filter (in cpm) was determined by scintillation counting in a Betaplate liquid scintillation counter. The effective dose of immunosuppressant (ED) was calculated using the following equation: ED=(CCPMdrug exposed well/mean CCPMcontrol wells)×100%.

Assay [5] relates to B16. Kind of assay: In vitro cytotoxic activity, Calcein AM. As to conditions: Mus musculus, B16, 72 h, three days. Format: cell-based.
Assay [6] has as its target cdk1/cyclin B (CDC2) (Homo sapiens, UniProt P06493). Nature of the assay: CDK inhibition assay, cdk1/cyclin B (CDC2) kinase, histone phosphorylation. Format: biochemical. A digest of the protocol:
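Human cdk1/cyclin B activity measured with 1 mg/ml histone substrate, 15 μM ATP plus [γ-32P]ATP, in HEPES pH 7.4 buffer with 10 mM MgCl2. Phosphorylation quantified by phosphorimaging; activity expressed as % of maximum, IC50 from dose-response curves by graphic analysis.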

In assay [7] the test system is myeloid leukemia KG1 cell line. Nature of the assay: Cell proliferation of KG1, flow cytometric cell count. The format is cell-based, human. As to conditions: 96 hours, read-out: KG1 IC50. On the procedure: (§1) Cell lines: Human leukemic cell lines were obtained from the American Type Culture Collection (ATCC, Rockville, Md., USA). They were cultured in Iscove's Modified Dulbecco's Medium (IMDM) supplemented with 10% heat inactivated fetal calf serum (FCS), 200 U/ml penicillin, 200 μg/ml streptomycin and 1 μg/ml amphotericin B. Cells were cultured in a 5% CO2-95% air fully humidified incubator. For effects on clonogenic output, 1000 cells/well were plated in duplicate in methylcellulose (0.9%), supplemented with 20% FCS for 14 days.
(§2) Cells were plated at 10000 per well in 200 μl IMDM medium and incubated with 0-50 μM of the novel compounds (Tab 8), by addition of drug directly to the culture medium and incubated at 37° C. for 96 hours (Tab 8). Absolute cell number was determined by addition of a known concentration Fluoresbrite microspheres (FITC) (Polysciences, Inc.). The absolute number of cells/well was calculated as: {(total number of beads added/well)/(number of beads measured)×(number of measured cells in the gate of interest)}. All analyses were performed with a FACScan (BD), using CELLQuest software (Becton Dickinson).
(§3) Response of the myeloid leukemia KG1 and T-lymphocyte leukemia Molt3 cell lines to the cytostatic effect of the novel compounds was determined using the above-mentioned standardized bead suspension that was used to determine the absolute cell number by flow cytometric (FCM) measurement. Cells were grown in the presence of increasing concentration of the novel compounds.
To determine reversibility of the effects of the novel compounds, cells were plated at 10000 per well and exposed to 0-50 μM of the compounds for the time indicated, followed by washing in phosphate-buffered saline (PBS) (Life Technologies) and reseeded into drug-free medium for 7 additional days. An identical set of cells was plated and exposed to the drugs for 7 additional days. After 7 days (168 hours), the relative cell number was assayed by flow cytometry.

For assay [8], the system named is PHA-stimulated lymphocytes (PBMC). Nature of the assay: Proliferation of PHA-stimulated lymphocytes (PBMC), flow cytometric cell count. Format: cell-based, human. As to conditions: 96 hours, IL-2. On the procedure: Peripheral blood mononuclear cells (PBMC): Human peripheral blood mononuclear cells were isolated by density gradient (Ficoll-Hypaque) (LSM, ICN Biomedicals Inc.). PBMC were stimulated with 5 μg/ml phytohemaglutinin A (PHA) (Sigma) during 24-48 hours in IMDM supplemented with 10% FCS at 37° C. After washing off the PHA, PBMC were incubated with interleukin-2 (IL-2) (10 U/ml) (Genzyme).
as §2
PHA-stimulated lymphocytes (PBMC) were tested for their cytotoxicity as one of the normal counterparts of the cell lines. Cells were grown for 96 hours in the presence of IL-2 and different concentrations of the novel compounds and cell number was counted on the flow cytometer.
For orientation: In flow cytometry, cells or beads pass a laser one at a time.

Assay [9] concerns T-lymphocyte leukemia Molt3 cell line. Nature of the assay: Cell proliferation of Molt3, flow cytometric cell count. Format: cell-based, human. Conditions: 96 hours. How it is done: as §1, §2, §3

Where two headings read alike, the source gives them in different places.

The source of these data is patent publication US7745450B2, “Pyrazolo[4,3-d]pyrimidines, processes for their preparation and methods for therapy” (Institute of Experimental Botany, priority 2002, dated 2010).

cdk1/cyclin B (CDC2), sequence (P06493 whole entry, species assumed): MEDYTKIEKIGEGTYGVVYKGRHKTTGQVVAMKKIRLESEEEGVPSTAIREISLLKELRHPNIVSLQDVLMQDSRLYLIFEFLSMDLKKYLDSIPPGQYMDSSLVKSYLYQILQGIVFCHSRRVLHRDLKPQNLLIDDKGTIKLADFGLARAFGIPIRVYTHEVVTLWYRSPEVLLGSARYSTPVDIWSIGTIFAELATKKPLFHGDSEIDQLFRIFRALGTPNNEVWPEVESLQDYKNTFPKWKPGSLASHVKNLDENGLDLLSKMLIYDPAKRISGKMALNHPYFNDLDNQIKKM
cdk1/cyclin B (CDC2), sequence (P14635 whole entry partner, species assumed): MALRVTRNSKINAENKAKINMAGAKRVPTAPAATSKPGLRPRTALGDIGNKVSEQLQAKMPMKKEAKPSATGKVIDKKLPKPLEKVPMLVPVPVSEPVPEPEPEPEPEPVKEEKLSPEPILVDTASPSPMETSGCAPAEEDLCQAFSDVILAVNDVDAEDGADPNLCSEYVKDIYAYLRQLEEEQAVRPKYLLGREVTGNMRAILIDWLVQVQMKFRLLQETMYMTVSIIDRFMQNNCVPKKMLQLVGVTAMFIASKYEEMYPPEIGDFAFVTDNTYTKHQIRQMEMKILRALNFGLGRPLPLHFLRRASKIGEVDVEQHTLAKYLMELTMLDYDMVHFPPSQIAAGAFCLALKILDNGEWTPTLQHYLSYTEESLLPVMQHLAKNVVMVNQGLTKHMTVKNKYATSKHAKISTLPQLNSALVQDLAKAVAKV

One may read the IC50 as the midpoint of a concentration-inhibition curve. As a reminder, the GI50 is the concentration giving 50% growth inhibition. With `CC(C)c1n[nH]c2c(Nc3cccc(Cl)c3)nc(NC3CCC(N)CC3)nc12` (stereo not drawn), in [1], the “SENESCENT CELLS (%) HCA25” value came to 4%, the “SENESCENT CELLS (%) HCA45” value was 5% and the “SENESCENT CELLS (%) HCA80” value is 35%. In assay [2], this compound gave an IC50 of 12 nM. In addition, the GI50 in [3] was 0.5 µM. In addition, the EC50 in assay [4] was 0.5 µM. In assay [5], the GI50 is 1.3 µM.
`CC(C)c1n[nH]c2c(NCc3ccccc3)nc(NCCCO)nc12` [Compound 7, 5-(3-hydroxypropylamino)-7-benzylamino-3-isopropylpyrazolo[4,3-d]pyrimidine]: the IC50 in assay [6] is 200 nM; in assay [6] (cell free system (Table 8)), 1000 nM; in [7] (Homo sapiens, KG-1) it was 25 ± 4.4 µM; in [8] (Homo sapiens, Lymphocyte), 9 ± 0.2 µM; in assay [9] (Homo sapiens, MOLT-3), 24 ± 2.2 µM.
As to `Clc1ccc(Nc2ncnc3cn[nH]c23)cc1` [H / 4-chloroanilino / H], in assay [1], the “SENESCENT CELLS (%) HCA25” value turned out to be 3%, the “SENESCENT CELLS (%) HCA45” value was found to be 6% and the “SENESCENT CELLS (%) HCA80” value was 27%.
Take `CCC(CO)Nc1nc(NCc2ccc(O)c(O)c2)c2[nH]nc(C(C)C)c2n1` (stereo not drawn) [Compound 47, 5-(1-ethyl-2-hydroxyethylamino)-7-(3,4-dihydroxybenzyl)amino-3-isopropylpyrazolo[4,3-d]pyrimidine]: the IC50 came to 1200 nM in [6] (cell free system (Table 8)); 8 ± 1 µM in assay [7] (Homo sapiens, KG-1); 3 ± 1.2 µM in assay [8] (Homo sapiens, Lymphocyte); 10 ± 1 µM in assay [9] (Homo sapiens, MOLT-3).
With `Nc1c(Cl)ccc(CNc2ncnc3cn[nH]c23)c1N` [H / 2,3-diamino-4-chlorobenzylamine / H], in [1], the “SENESCENT CELLS (%) HCA25” value was 3%, the “SENESCENT CELLS (%) HCA45” value turned out to be 3% and the “SENESCENT CELLS (%) HCA80” value came out at 18%.
Regarding “5-(3-hydroxypropylamino)-7-[N-(3,4-dihydroxybenzyl-N-methyl]amino-isopropylpyrazolo[4,3-d]pyrimidine [Compound 42]”, the IC50 in assay [6] (cell free system (Table 8)) stood at 2600 nM; in [7], 10.7 ± 0.3 µM; in assay [8] it was 5.9 ± 2.9 µM; in [9], 13 ± 2.1 µM.
For the compound `CC(C)c1n[nH]c2c(NC(CO)c3ccccc3)nc(N3CCOCC3)nc12` (stereo not drawn) [Compound 85, 5-(morpholino)-7-(1-phenyl-2-hydroxyethylamino)-3-isopropylpyrazolo[4,3-d]pyrimidine], the 50% inhibitory concentration (IC50) in [6] (cell free system (Table 8)) turned out to be 5500 nM; in assay [7] (Homo sapiens, KG-1), 28 ± 1.5 µM; in assay [8] (Homo sapiens, Lymphocyte), 20 ± 7.7 µM; in [9] (Homo sapiens, MOLT-3), 20 ± 1.3 µM.
For the compound `CN(Cc1ccc(O)c(O)c1)c1ncnc2cn[nH]c12`, in [1], the “SENESCENT CELLS (%) HCA25” value came out at 4%, the “SENESCENT CELLS (%) HCA45” value worked out at 4% and the “SENESCENT CELLS (%) HCA80” value was 22%.
For the compound `CCC(CO)Nc1nc(NCc2ccc(O)c(O)c2)c2ncn(C(C)C)c2n1` (stereo not drawn) [Compound 243, 2-(1-ethyl-2-hydroxyethylamino)-6(3,4-dihydroxybenzylamino)-9-isopropylpurine], the IC50 in [8] (Homo sapiens, Lymphocyte) worked out at 9 ± 6.6 µM; in assay [9] (Homo sapiens, MOLT-3), 9 ± 1.2 µM.
As for `Nc1cc(CNc2ncnc3cn[nH]c23)ccc1Cl` [H / 3-amino-4-chlorobenzylamine / H], in [1], the “SENESCENT CELLS (%) HCA25” value was 4%, the “SENESCENT CELLS (%) HCA45” value stood at 5% and the “SENESCENT CELLS (%) HCA80” value was found to be 21%.
As for `CC(C)c1n[nH]c2c(N[C@@H](CO)c3ccccc3)nc(NC[C@H](O)CO)nc12` [Compound 158, 5-(2,3-dihydroxypropylamino)-7-[(R,S)-(1-phenyl-2-hydroxyethyl)amino]-3-isopropylpyrazolo[4,3-d]pyrimidine], the IC50 in assay [6] (cell free system (Table 8)) is > 50000 nM; in [7], 12 ± 1 µM; in assay [8], 10 ± 1 µM; in assay [9], 13.4 ± 1.4 µM.
For “5-(hexylamino)-7-[N-(3,4-dihydroxybenzyl-N-methyl]amino-isopropylpyrazolo[4,3-d]pyrimidine [Compound 41]”, in that order: 1000 nM, 15.3 ± 2.4 µM, 10 ± 2 µM and 14 ± 3.2 µM.
For “5-(5-cyanopentyl)-7-[(R,S)-(1-phenyl-2-hydroxyethyl)amino]-9-isopropylpurine [Compound 123]”, in that order: 33000 nM, 42 ± 4.8 µM, 33 ± 4.4 µM and 42.5 ± 6 µM.
Take “5-(3-hydroxypropylamino)-7[N-(3,4-dihydroxybenzyl-N-methyl]amino-3-isopropylpyrazolo[4,3-d]pyrimidine [Compound 50]”: the figures for the half-inhibitory concentration (IC50) in assay [7], in assay [8] and in [9] were 21 µM, 15 ± 7.3 µM and 21 µM, respectively.
Consider `CC(C)c1n[nH]c2c(Nc3cccc(Cl)c3)nc(NCCO)nc12`, for which, in assay [1], the “SENESCENT CELLS (%) HCA25” value worked out at 4%, the “SENESCENT CELLS (%) HCA45” value is reported as 4% and the “SENESCENT CELLS (%) HCA80” value came out at 38%. In [2], inhibition was half-maximal at 280 nM (IC50). The GI50 in assay [3] was 18 µM. Also, the EC50 in [4] is 17 µM. The GI50 in assay [5] was 29 µM.
On to `CC(=O)c1ccccc1CNc1ncnc2cn[nH]c12` [H / 2-acetylbenzylamino / H], for which, in [1], the “SENESCENT CELLS (%) HCA25” value worked out at 3%, the “SENESCENT CELLS (%) HCA45” value amounted to 5% and the “SENESCENT CELLS (%) HCA80” value stood at 28%.
